As a reminder, the IC50 is the point on the concentration scale where inhibition reaches its midpoint. A word on the half-life: it is the time in which the quantity being followed falls by half. High values mean slow decline, low ones rapid decline.

Data set [1] has as its target recombinant human DPPI (Cathepsin C) (Homo sapiens (Human), UniProt P53634). As to the kind of experiment: Inhibition of human DPPI (Cathepsin C). The class given is biochemical. As to conditions: substrate Gly-Arg-AMC. A digest of the protocol:
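Fluorescence read after 30 min room-temperature turnover of 50 μM (final) substrate by recombinant human cathepsin C, pH 6.0 MES/NaCl/DTT/BSA buffer, quenched by Gly-Phe-DMK (1 μM final). Activity as percent of vehicle after background subtraction, used for IC50.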

A short description of data set [2]: Determination of metabolic stability with human liver microsomes. The conditions noted are these: pooled human liver microsomes; for half-life at 1 μM: human, pH 7.6. (Liver microsomes are vesicles of endoplasmic reticulum, rich in cytochrome P450 enzymes.)
The target in data set [3] is recombinant human Cathepsin K (Homo sapiens (Human), UniProt P43235). As to the kind of experiment: Inhibition of human Cathepsin K. The class given is biochemical. The conditions noted are these: substrate Z-Gly-Pro-Arg-AMC. Summed up: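 Fluorogenic Z-Gly-Pro-Arg-AMC cleavage, 60 min at room temperature, after a 10 min enzyme–compound preincubation (enzyme 2 ng/μL; compound 0.1 nM–100 μM; 1% DMSO). Buffer pH 5.5 with sodium acetate, EDTA and L-cysteine; procathepsin first activated 30 min at pH 3.5. E64 (1 μM) stop; IC50 derived from percent of vehicle signal minus background (Ex 360/Em 460 nm).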
Sequence of recombinant human Cathepsin K (P43235 115-329): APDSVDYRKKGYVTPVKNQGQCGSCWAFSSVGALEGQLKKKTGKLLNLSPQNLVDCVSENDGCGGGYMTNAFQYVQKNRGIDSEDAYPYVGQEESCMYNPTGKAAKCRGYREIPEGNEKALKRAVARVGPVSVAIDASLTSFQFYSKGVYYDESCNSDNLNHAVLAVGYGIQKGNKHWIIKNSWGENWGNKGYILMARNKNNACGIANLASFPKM

The structures appear in SMILES notation.

Sequence of recombinant human DPPI (Cathepsin C) (P53634 231-394): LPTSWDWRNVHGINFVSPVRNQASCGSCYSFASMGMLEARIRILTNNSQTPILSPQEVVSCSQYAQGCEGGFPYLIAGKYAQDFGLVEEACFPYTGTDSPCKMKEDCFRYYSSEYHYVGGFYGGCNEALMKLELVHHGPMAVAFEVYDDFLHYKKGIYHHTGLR
Sequence of recombinant human DPPI (Cathepsin C) (P53634 395-463): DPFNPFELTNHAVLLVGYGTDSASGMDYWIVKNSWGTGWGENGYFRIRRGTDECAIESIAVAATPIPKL
Sequence of recombinant human DPPI (Cathepsin C) (P53634 25-134): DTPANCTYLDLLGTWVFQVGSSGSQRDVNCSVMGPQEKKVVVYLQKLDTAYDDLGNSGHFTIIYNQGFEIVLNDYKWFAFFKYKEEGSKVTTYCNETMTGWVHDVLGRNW

`N#C[C@H](Cc1cc2c(=O)[nH]c3c(F)c(F)ccc3c2cc1F)NC(=O)[C@H]1N[C@@H]2CC[C@H]1C2` [Example 324]: the IC50 came to 1 nM in data set [1] and 800 nM in data set [3]. In addition, the half-life at 1 μM in data set [2] was over 2.17 h.
For `N#C[C@H](Cc1ccc(-c2ccc3c(c2)NC(=O)C3)cc1F)NC(=O)[C@H]1N[C@@H]2CC[C@H]1C2` [Example 29] the same measures were 4.2 nM, 1400 nM and over 2.17 h.
For `COc1ccc(-c2cn(-c3ccc(C[C@@H](C#N)NC(=O)[C@H]4N[C@@H]5CC[C@H]4C5)c(F)c3)nn2)cc1OC` [Example 77] the same measures were 11.9 nM, 5300 nM and over 2.17 h.
For `N#Cc1ccc(-c2ccc(CC(C#N)NC(=O)[C@H]3N[C@@H]4CC[C@H]3C4)c(F)c2)cc1F` (stereo partly drawn) [Example 35] the same measures were 4.6 nM, 4400 nM and over 2.17 h.
For the compound `CN1C(=O)Cc2ccc(-c3ccc(CC(C#N)NC(=O)[C@H]4N[C@@H]5CC[C@H]4C5)c(F)c3)cc21` (stereo partly drawn) [Example 15], the half-inhibitory concentration (IC50) came to 2 nM in data set [1] and 3200 nM in data set [3]. Besides, in data set [2] (1 μM test compound, 37° C., NADPH), the “In vitro stability in human liver microsome incubations t½” value came to 2.17 h.
`Cn1nc(C(F)(F)F)cc1-c1ccc(C[C@@H](C#N)NC(=O)[C@H]2N[C@@H]3CC[C@H]2C3)c(F)c1` [Example 100]: the half-maximal inhibitory concentration (IC50) in data set [1] was determined as 22.3 nM; in data set [3] it was 8200 nM. Moreover, the half-life at 1 μM in data set [2] was over 2.17 h.
For `N#C[C@H](Cc1ccc(-c2ccc(C(=O)N3CCN4CCOCC4C3)o2)cc1F)NC(=O)[C@H]1N[C@@H]2CC[C@H]1C2` (stereo partly drawn) [Example 238] the same measures were 14.3 nM, 9300 nM and 1.83 h.
As to `N#C[C@H](Cc1ccc(-n2cc(C(F)(F)F)cn2)cc1F)NC(=O)[C@H]1N[C@@H]2CC[C@H]1C2` [Example 285], the half-life at 1 μM in data set [2] is over 2.17 h. Besides, the 50% inhibitory concentration (IC50) in data set [3] was found to be 8700 nM.
`N#C[C@H](Cc1ccc(-c2cnn(CC3CCCO3)c2)cc1F)NC(=O)[C@H]1N[C@@H]2CC[C@H]1C2` (stereo partly drawn) [Example 50]: the IC50 in data set [1] came out at 7.4 nM; in data set [3], 3600 nM. The compound further displayed a half-life at 1 μM in data set [2] of over 2.17 h.
For the compound `CN(C)CCn1cc(-c2ccc(C[C@@H](C#N)NC(=O)[C@H]3N[C@@H]4CC[C@H]3C4)c(F)c2)ccc1=O` [Example 342], in data set [1], the concentration for half-maximal inhibition (IC50) worked out at 1.3 nM. Further, the half-life at 1 μM in data set [2] is over 2.17 h.
For `Cn1ccc(-c2ccc(C[C@@H](C#N)NC(=O)[C@H]3N[C@@H]4CC[C@H]3C4)c(F)c2)cc1=O` [Example 255] the same measures were 10.9 nM and over 2.17 h.
For `N#CC(Cc1ccc2c(c1)c(=O)[nH]c1ccccc12)NC(=O)[C@H]1N[C@@H]2CC[C@H]1C2` (stereo partly drawn) [Example 9, (1S,2S,4R)—N-[1-cyano-2-(6-oxo-5H-phenanthridin-8-yl)ethyl]-3-azabicyclo[2.2.1]heptane-2-carboxamide] the same measures were 9.6 nM and over 2 h.
For `N#C[C@H](Cc1ccc(N2CCC3C(=O)NCCC3C2)cc1F)NC(=O)[C@H]1N[C@@H]2CC[C@H]1C2` (stereo partly drawn) [Example 248] the same measures were 18 nM and over 2.17 h.
As to `N#CC(Cc1ccc2c(c1)c(=O)[nH]c1ccc(N)cc12)NC(=O)[C@H]1N[C@@H]2CC[C@H]1C2` (stereo partly drawn) [Example 314], the IC50 in data set [1] turned out to be 14 nM. In data set [2], this compound had a half-life at 1 μM of over 2.17 h.
For `COCCN1CCN(c2ccc(C[C@@H](C#N)NC(=O)[C@H]3N[C@@H]4CC[C@H]3C4)c(F)c2)CC1C` (stereo partly drawn) [Example 178] the same measures were 7.4 nM and over 2.17 h.
Consider `COCCn1cc(-c2ccc(CC(C#N)NC(=O)[C@H]3N[C@@H]4CC[C@H]3C4)c(F)c2)cn1` (stereo partly drawn) [Example 97], for which the half-life at 1 μM in data set [2] is over 2.17 h. In data set [3], the IC50 turned out to be 7900 nM.
For `N#CC(Cc1ccc2c(c1)c(=O)[nH]c1c(F)cccc12)NC(=O)[C@H]1N[C@@H]2CC[C@H]1C2` (stereo partly drawn) [Example 308], the IC50 in data set [1] turned out to be 8.3 nM. Further, the half-life at 1 μM in data set [2] is over 2.17 h.
For `Cn1c(=O)c2cc(CC(C#N)NC(=O)[C@H]3N[C@@H]4CC[C@H]3C4)ccc2c2ccc(Cl)cc21` (stereo partly drawn) [Example 305, (1S,2S,4R)—N-[2-(3-chloro-5-methyl-6-oxo-phenanthridin-8-yl)-1-cyano-ethyl]-3-azabicyclo[2.2.1]heptane-2-carboxamide] the same measures were 6.9 nM and 1.52 h.
Regarding `CN(C)CCCN1C(=O)Cc2ccc(-c3ccc(C[C@@H](C#N)NC(=O)[C@H]4N[C@@H]5CC[C@H]4C5)c(F)c3)cc21` [Example 277], the IC50 in data set [1] amounted to 3 nM. The compound also yielded a half-life at 1 μM in data set [2] of over 2.17 h.
For `CN1CCN(C(=O)c2ccc(-c3ccc(C[C@@H](C#N)NC(=O)[C@H]4N[C@@H]5CC[C@H]4C5)c(F)c3)o2)CC1` [Example 289] the same measures were 2.5 nM and 1.83 h.
For `N#C[C@H](Cc1ccc(-c2cnc3n2CCC3)cc1F)NC(=O)[C@H]1N[C@@H]2CC[C@H]1C2` [Example 221] the same measures were 3.7 nM and over 2.17 h.
With `N#CC(Cc1ccc2c(c1)c(=O)[nH]c1c(C(=O)NC3CC3)cccc12)NC(=O)[C@H]1N[C@@H]2CC[C@H]1C2` (stereo partly drawn) [Example 341], in data set [1], the IC50 was 7.6 nM. Besides, in data set [2], the half-life at 1 μM was over 2.17 h.
For the compound `CN1CCN(c2ccc(C[C@@H](C#N)NC(=O)[C@H]3N[C@@H]4CC[C@H]3C4)c(F)c2)C(=O)C1` [Example 125], the IC50 in data set [1] amounted to 206 nM. The compound further displayed a half-life at 1 μM in data set [2] of over 2.17 h.
Turning to `N#CC(Cc1ccc2c(c1)c(=O)[nH]c1c(F)cc(C(N)=O)cc12)NC(=O)[C@H]1N[C@@H]2CC[C@H]1C2` (stereo partly drawn) [Example 291], in data set [1], the 50% inhibitory concentration (IC50) was found to be 5.9 nM. In data set [2], this compound had a half-life at 1 μM of over 2.17 h.
For `CNC(=O)Cc1ccc2[nH]c(=O)c3cc(CC(C#N)NC(=O)[C@H]4N[C@@H]5CC[C@H]4C5)ccc3c2c1` (stereo partly drawn) [Example 306] the same measures were 7 nM and over 2.17 h.
For `N#C[C@H](Cc1ccc(N2CCOCC2)cc1F)NC(=O)[C@H]1N[C@@H]2CC[C@H]1C2` [Example 205] the same measures were 25.9 nM and over 2.17 h.
For `CS(=O)(=O)c1cc(-c2ccc(C[C@@H](C#N)NC(=O)[C@H]3N[C@@H]4CC[C@H]3C4)c(F)c2F)ccc1C#N` [Example 183] the same measures were 8.8 nM and over 2.17 h.
In data set [2], `COCCn1cc(-c2ccc(C[C@@H](C#N)NC(=O)[C@H]3N[C@@H]4CC[C@H]3C4)c(F)c2)cn1` [Example 44] registered a half-life at 1 μM of over 2.17 h. For the same compound, in data set [3], the IC50 was determined as 4000 nM.
As for `CS(=O)(=O)c1ccn(-c2ccc(C[C@@H](C#N)NC(=O)[C@H]3N[C@@H]4CC[C@H]3C4)c(F)c2)c(=O)c1` [Example 266], the half-maximal inhibitory concentration (IC50) in data set [1] was found to be 43.7 nM. Besides, the half-life at 1 μM in data set [2] is over 2.17 h.
On to `CCN1CCN(c2ccc(C[C@@H](C#N)NC(=O)[C@H]3N[C@@H]4CC[C@H]3C4)c(F)c2)CC1` [Example 272], for which the 50% inhibitory concentration (IC50) in data set [1] amounted to 6.8 nM. The compound further gave a half-life at 1 μM in data set [2] of over 2.17 h.
For `N#C[C@H](Cc1ccc(N2CC3(CNC3)C2)cc1F)NC(=O)[C@H]1N[C@@H]2CC[C@H]1C2` [Example 327] the same measures were 3.4 nM and over 2.17 h.
The compound `N#C[C@H](Cc1ccc(N2CCN(C3CCOC3)CC2)cc1F)NC(=O)[C@H]1N[C@@H]2CC[C@H]1C2` (stereo partly drawn) [Example 331] showed a half-life at 1 μM in data set [2] of over 2 h. For the same compound, the IC50 in data set [3] was 1500 nM.
Turning to `N#CC(Cc1ccc2c(c1)c(=O)[nH]c1c(F)cc(F)cc12)NC(=O)[C@H]1N[C@@H]2CC[C@H]1C2` (stereo partly drawn) [Example 310], the half-inhibitory concentration (IC50) in data set [1] stood at 9.4 nM. This compound also registered a half-life at 1 μM in data set [2] of over 2.17 h.
For `N#Cc1ccc(-c2ccc(C[C@@H](C#N)NC(=O)[C@H]3N[C@@H]4CC[C@H]3C4)c(F)c2)o1` [Example 162] the same measures were 2 nM and over 2.17 h.
For `COCCN1C(C)CN(c2ccc(C[C@@H](C#N)NC(=O)[C@H]3N[C@@H]4CC[C@H]3C4)c(F)c2)CC1C` (stereo partly drawn) [Example 191] the same measures were 11.2 nM and 1.52 h.
Turning to `N#C[C@H](Cc1ccc(OCCN2CCNCC2)cc1F)NC(=O)[C@H]1N[C@@H]2CC[C@H]1C2` [Example 189], the 50% inhibitory concentration (IC50) in data set [1] stood at 10.4 nM. The half-life at 1 μM in data set [2] is over 2.17 h.
For `CCNC(=O)c1ccc(-c2ccc(C[C@@H](C#N)NC(=O)[C@H]3N[C@@H]4CC[C@H]3C4)c(F)c2)cc1` [Example 184] the same measures were 8.8 nM and over 2.17 h.
Turning to `N#C[C@H](Cc1ccc([C@@H]2CCN3CCOC[C@H]3C2)cc1F)NC(=O)[C@H]1N[C@@H]2CC[C@H]1C2` [Example 283], the half-life at 1 μM in data set [2] is over 2.17 h. In data set [3], the IC50 came to 3600 nM.
As for `CNc1nc2cc(-c3ccc(C[C@@H](C#N)NC(=O)[C@H]4N[C@@H]5CC[C@H]4C5)c(F)c3)ccc2[nH]1` [Example 347], the IC50 in data set [1] was 8.5 nM. Further, the half-life at 1 μM in data set [2] is over 2.17 h.
For `CS(=O)(=O)c1ccc2[nH]c(=O)c3cc(CC(C#N)NC(=O)[C@H]4N[C@@H]5CC[C@H]4C5)ccc3c2c1` (stereo partly drawn) [Example 313] the same measures were 13.6 nM and over 2.17 h.
Compound `CN1Cc2cc(-c3ccc(C[C@@H](C#N)NC(=O)[C@H]4N[C@@H]5CC[C@H]4C5)c(F)c3)ccc2S1(=O)=O` [Example 169] returned a half-life at 1 μM in data set [2] of over 2.17 h. For the same compound, in data set [3], the IC50 came to 5200 nM.

For the origin of these results see patent US8987249B2, “Substituted 2-Aza-bicyclo[2.2.1]heptane-3-carboxylic acid (benzyl-cyano-methyl)-amides inhibitors of Cathepsin C” (Boehringer Ingelheim International GmbH, priority 2013, dated 2015).
